# According to US20140199714A1, “METHOD FOR DETECTING CANCER CELLS METASTASIZING INTO SENTINEL LYMPH NODE” (SHINSHU UNIVERSITY, priority 2008, published 2014):
# Legend:
# [1] = test system: attachment of MDA-MB-231 carcinoma cells to human LECs; assay: In vitro human LECs attachment assay (CCL2), MDA-MB-231; assay type: cell-based; details: 18 hrs.-stimulation of 10 ng/mL CCL2 vs negative control with DMEM/F12; p<0.01
# Protocol: The human LECs were plated to form a monolayer on type I collagen-coated 35 mm plates and incubated to confluence in 5% O2, 5% CO2, and 90% N2 at 37° C. The LECs were kept in serum-starved medium containing EBM-2 with 3% FBS. Selected plates were treated with 10 ng/mL CCL2 for 18 hrs. In some experiments, the plates were stimulated by the serum-starved medium pretreated with neutralization of 10 ng/mL CCL2 with 1.0 μg/mL CCL2 specific antibody.
# In some experiments, the plates were also treated with anti-human ICAM-1 antibody (available from R&D systems, US) for 30 min. after the 18 hrs. treatment with 10 ng/mL CCL2.
# The two kinds of the breast carcinoma cells such as MDA-MB-231 and MCF-7 stained with PKH26 fluorescent dye (available from SIGMA, US) were then plated at 1×10^5 cells per plate and incubated for 30 min. at 37° C. Unbound cells were removed by aspiration, and the plates were washed with EBM-2 three times. The attachment of the carcinoma cells was quantified by counting the number of cells under ×100 magnification using a Leica microscope.
# [2] = test system: ICAM-1 mRNA in human LECs; assay: Quantitative RT-PCR of ICAM-1 mRNA in human LECs; assay type: cell-based
# Protocol: The 0 hr., 1 hr., 4 hrs. and 18 hrs. expressions of ICAM-1 mRNA were evaluated by quantitative reverse transcription polymerase chain reaction (RT-PCR) for ICAM-1 cDNA. The total RNA was extracted from the cultured human LECs using ISOGEN reagent (available from Nippon Gene Co., Ltd., Japan) according to the manufacturer's instructions. The concentration of each RNA was calculated using 260 nm absorbance with a spectrophotometer. The extracted RNA was reverse-transcribed with M-MLV reverse transcriptase (available from Ambion Inc., US). For RT-PCR analysis, each superscript first-strand synthesis kit (available from Invitrogen Corporation, US) was used with 1.0 μg of the total RNA. Forward and reverse primers of ICAM-1 and cyclophilin A were used for each specific probe, respectively as follows; ICAM-1 (available from TAKARA BIO INC., Japan), and cyclophilin A:
# The cDNA was diluted 5-fold prior to PCR amplification. Quantitative RT-PCR was performed using a LIGHT CYCLER rapid thermal cycler system (available from Roche Diagnostics Limited, UK). Reactions were performed in a 20 μL volume with 0.5 μM primers, TAQ DNA POLYMERASE, and the buffer was included in the SYBR PREMIX EX TAQ (available from TAKARA BIO INC., Japan; SYBR is a registered trademark). The PCR protocol included 10 secs. of denaturation step followed by 45 cycles of 95° C. denaturation for 5 secs. and 60° C. annealing for 20 secs. The fluorescent product was detected at the end of the 72° C. extension period. Negative controls included PCR reactions with cDNA omitted. To confirm amplification specificity, PCR products from each primer pair were subjected to melting curve analysis. Quantification data was analyzed with LIGHT CYCLER analysis software. The results are presented as normalized ratio of the expression of ICAM-1 mRNA to cyclophilin A.
substance,measurement,setting,value
CCL2: chemokine CCL2,in vitro attachment of MDA-MB-231 to human LECs,[1],significant increase
same,expression of ICAM-1 mRNA (ratio to cyclophilin A),"[2]; 10 ng/mL CCL2, 1 hr. after the stimulation",significantly increased
same,expression of ICAM-1 mRNA (ratio to cyclophilin A),"[2]; 10 ng/mL CCL2, around 4 hrs. after the stimulation",maximal level
same,expression of ICAM-1 mRNA (ratio to cyclophilin A),"[2]; 10 ng/mL CCL2, up to 18 hrs. after the stimulation",increased slightly
